Reference: patent US20250288561A1, “NEZULCITINIB FOR DELIVERY BY NEBULIZED ORAL INHALATION” (THERAVANCE BIOPHARMA R&D IP, LLC, priority 2022, published 2025)
Like-named read-outs stand apart in the source and are kept apart here.

Tests used:
[1] = tested on: IL-6 signaling; test: Inhibition of cytokine signaling; assay type: cell-based
[2] = target: TYK2 (Homo sapiens, UniProt P29597); test: JAK enzyme inhibition; assay type: biochemical
[3] = Phase 1 open-label study: plasma PK of single inhaled nezulcitinib doses under supplemental oxygenation scenarios; assay type: in vivo, human; details: for AUC % extrap / CL/F / DN AUC0-inf / DN AUC0-t / DN Cmax / Kel / Tmax / AUC(0-inf) / Cmax / AUC(0-t) / Vd/F / half-life: plasma; for AUC % extrap / CL/F / DN AUC0-inf / DN AUC0-t / DN Cmax / Kel / AUC(0-inf) / Cmax / AUC(0-t) / Vd/F / half-life: arithmetic mean; for Tmax: median; for Vd/F: read-out: Vz/F; for half-life: read-out: t½ (converted)
Excerpt: Part A: assessed the plasma PK of nezulcitinib following single inhaled doses administered in the setting of various supplemental oxygenation scenarios in healthy participants.
This was a Phase 1, open-label, fixed-sequence, 4-period study to evaluate the PK and safety of single inhaled doses of nezulcitinib, administered under different supplemental oxygenation scenarios.
Participants received a single inhaled dose of nezulcitinib using a nebulizer device on Day 1 of each administration period, under different supplementary oxygenation conditions and under fasting conditions.
Administrations were as follows: • Administration A (test): 3 mg nezulcitinib delivered by nasal inhalation via the Aerogen Solo integrated with a high-flow nasal cannula circuit delivering supplemental oxygen at a flow rate of 30 L/min. • Administration B (reference): 3 mg nezulcitinib delivered by oral inhalation via the Aerogen Solo coupled with the Aerogen Ultra handheld device, in the presence of supplemental oxygen delivery via low-flow nasal cannula at 6 L/min. • Administration C (test): 3 mg nezulcitinib delivered by oral inhalation via the Aerogen Solo coupled with the Aerogen Ultra handheld device, in the presence of supplemental oxygen delivery via high-flow nasal cannula at a flow rate of 30 L/min. • Administration D1 (test): 3 mg nezulcitinib delivered by oral inhalation via the Aerogen Solo coupled with the Aerogen Ultra handheld device, in the presence of supplemental oxygen delivery via high-flow nasal cannula at a flow rate of 50 L/min. • Administration D2 (test): 9 mg nezulcitinib delivered by oral inhalation via the Aerogen Solo coupled with the Aerogen Ultra handheld device, in the presence of supplemental oxygen delivery via high-flow nasal cannula at a flow rate of 50 L/min.
Serial blood samples were collected prior to and until 48 hours following dosing on Day 1 of each period to determine the concentration of nezulcitinib in plasma.
The following non-compartmental PK parameters were calculated for nezulcitinib, as appropriate:
• AUC0-t: The area under the concentration time curve, from time 0 to the last observed non-zero concentration, as calculated by the linear trapezoidal method. • AUC0-24: The area under the concentration time curve, from time 0 to the 24 hour time point, as calculated by the linear trapezoidal method. • AUC0-inf: The area under the concentration time curve from time 0 extrapolated to infinity. AUC0-inf was calculated as the sum of AUC0-t plus the ratio of the last measurable plasma concentration to the elimination rate constant. • AUC % extrap: Percent of AUC0-inf extrapolated, represented as (1−AUC0-t/AUC0-inf)*100. • CL/F: Apparent total plasma clearance after oral (extravascular) administration, calculated as Dose/AUC0-inf. • Cmax: Maximum observed concentration. • Tmax: Time to reach Cmax. If the maximum value occurs at more than one time point, Tmax is defined as the first time point with this value. • Kel: Apparent first order terminal elimination rate constant calculated from a semi-log plot of the plasma concentration versus time curve. The parameter was calculated by linear least-squares regression analysis using the maximum number of points in the terminal log-linear phase (e.g., three or more non-zero plasma concentrations). • t1/2: Apparent first-order terminal elimination half-life was calculated as 0.693/Kel. • Vz/F: Apparent volume of distribution during the terminal elimination phase after oral (extravascular) administration, calculated as Dose/(AUC0-inf*Kel).

[4] = tested on: subjects infected with COVID; test: Phase 2 clinical study in subjects infected with COVID: efficacy; assay type: in vivo, human; details: for time to recovery, median: vs placebo 11; for 28-day all-cause mortality, HR / time to recovery, HR: vs placebo
Experimental: Compound 1 has been studied in a phase 2 clinical study in subjects infected with COVID.
Importantly, in a post-hoc analysis of subjects with baseline CRP (n=201), in subjects with CRP <150 mg/L (n=171), there was an improvement in those treated with compound 1 when compared to placebo in: • 28-day all-cause mortality (total number of deaths: 1 vs 9, HR: 0.097, p=0.009). • time to recovery (median: 10 vs. 11 days, HR: 1.48, p=0.02).
In subjects with CRP >150 mg/L (n=30), there was no difference in time to recovery or 28-day all-cause mortality between those treated with compound 1 or placebo.

[5] = target: JAK1 (Homo sapiens, UniProt P23458); test: JAK enzyme inhibition; assay type: biochemical
[6] = Administration A: single 3 mg, nasal inhalation via high-flow nasal cannula circuit, oxygen 30 L/min
[7] = Administration B: single 3 mg, oral inhalation, low-flow nasal cannula oxygen 6 L/min
[8] = Administration C: single 3 mg, oral inhalation, high-flow nasal cannula oxygen 30 L/min
[9] = Administration D1: single 3 mg, oral inhalation, high-flow nasal cannula oxygen 50 L/min
[10] = Administration D2: single 9 mg, oral inhalation, high-flow nasal cannula oxygen 50 L/min
[11] = human, inhaled or intranasal, 3 mg, Administration A: single 3 mg, nasal inhalation via high-flow nasal cannula circuit, oxygen 30 L/min
[12] = human, inhaled, 3 mg, Administration B: single 3 mg, oral inhalation, low-flow nasal cannula oxygen 6 L/min
[13] = human, inhaled, 3 mg, Administration C: single 3 mg, oral inhalation, high-flow nasal cannula oxygen 30 L/min
[14] = human, inhaled, 3 mg, Administration D1: single 3 mg, oral inhalation, high-flow nasal cannula oxygen 50 L/min
[15] = human, inhaled, 9 mg, Administration D2: single 9 mg, oral inhalation, high-flow nasal cannula oxygen 50 L/min

Sequence of JAK1 (P23458 whole entry): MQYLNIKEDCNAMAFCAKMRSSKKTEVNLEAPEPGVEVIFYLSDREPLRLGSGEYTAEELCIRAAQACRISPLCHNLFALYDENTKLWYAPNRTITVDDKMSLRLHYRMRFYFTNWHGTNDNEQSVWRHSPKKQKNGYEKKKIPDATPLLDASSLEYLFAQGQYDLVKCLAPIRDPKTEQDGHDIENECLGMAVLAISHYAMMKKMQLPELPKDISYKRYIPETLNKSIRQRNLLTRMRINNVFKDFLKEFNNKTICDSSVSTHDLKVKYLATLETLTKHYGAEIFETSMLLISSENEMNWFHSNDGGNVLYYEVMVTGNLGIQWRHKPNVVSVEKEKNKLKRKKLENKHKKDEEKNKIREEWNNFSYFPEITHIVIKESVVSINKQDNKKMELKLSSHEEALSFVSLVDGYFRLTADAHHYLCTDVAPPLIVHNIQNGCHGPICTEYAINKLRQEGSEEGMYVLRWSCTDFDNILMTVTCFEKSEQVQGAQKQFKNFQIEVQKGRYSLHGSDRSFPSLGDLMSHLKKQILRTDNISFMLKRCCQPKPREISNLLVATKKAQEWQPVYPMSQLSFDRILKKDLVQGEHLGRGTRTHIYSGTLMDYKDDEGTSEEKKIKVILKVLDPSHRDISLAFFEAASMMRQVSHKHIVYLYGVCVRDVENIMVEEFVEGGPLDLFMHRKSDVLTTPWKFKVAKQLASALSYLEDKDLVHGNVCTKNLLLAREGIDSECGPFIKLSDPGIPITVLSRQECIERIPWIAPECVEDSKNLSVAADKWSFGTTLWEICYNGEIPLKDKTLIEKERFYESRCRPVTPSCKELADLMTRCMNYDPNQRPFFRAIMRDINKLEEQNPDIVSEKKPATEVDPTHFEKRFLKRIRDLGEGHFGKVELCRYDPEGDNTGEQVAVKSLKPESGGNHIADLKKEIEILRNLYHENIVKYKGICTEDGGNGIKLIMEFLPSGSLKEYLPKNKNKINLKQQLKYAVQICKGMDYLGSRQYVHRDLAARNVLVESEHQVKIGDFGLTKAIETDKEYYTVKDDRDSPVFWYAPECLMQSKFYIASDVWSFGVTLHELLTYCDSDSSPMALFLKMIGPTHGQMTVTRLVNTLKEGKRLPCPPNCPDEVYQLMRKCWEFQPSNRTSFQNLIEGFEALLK
Sequence of TYK2 (P29597 whole entry): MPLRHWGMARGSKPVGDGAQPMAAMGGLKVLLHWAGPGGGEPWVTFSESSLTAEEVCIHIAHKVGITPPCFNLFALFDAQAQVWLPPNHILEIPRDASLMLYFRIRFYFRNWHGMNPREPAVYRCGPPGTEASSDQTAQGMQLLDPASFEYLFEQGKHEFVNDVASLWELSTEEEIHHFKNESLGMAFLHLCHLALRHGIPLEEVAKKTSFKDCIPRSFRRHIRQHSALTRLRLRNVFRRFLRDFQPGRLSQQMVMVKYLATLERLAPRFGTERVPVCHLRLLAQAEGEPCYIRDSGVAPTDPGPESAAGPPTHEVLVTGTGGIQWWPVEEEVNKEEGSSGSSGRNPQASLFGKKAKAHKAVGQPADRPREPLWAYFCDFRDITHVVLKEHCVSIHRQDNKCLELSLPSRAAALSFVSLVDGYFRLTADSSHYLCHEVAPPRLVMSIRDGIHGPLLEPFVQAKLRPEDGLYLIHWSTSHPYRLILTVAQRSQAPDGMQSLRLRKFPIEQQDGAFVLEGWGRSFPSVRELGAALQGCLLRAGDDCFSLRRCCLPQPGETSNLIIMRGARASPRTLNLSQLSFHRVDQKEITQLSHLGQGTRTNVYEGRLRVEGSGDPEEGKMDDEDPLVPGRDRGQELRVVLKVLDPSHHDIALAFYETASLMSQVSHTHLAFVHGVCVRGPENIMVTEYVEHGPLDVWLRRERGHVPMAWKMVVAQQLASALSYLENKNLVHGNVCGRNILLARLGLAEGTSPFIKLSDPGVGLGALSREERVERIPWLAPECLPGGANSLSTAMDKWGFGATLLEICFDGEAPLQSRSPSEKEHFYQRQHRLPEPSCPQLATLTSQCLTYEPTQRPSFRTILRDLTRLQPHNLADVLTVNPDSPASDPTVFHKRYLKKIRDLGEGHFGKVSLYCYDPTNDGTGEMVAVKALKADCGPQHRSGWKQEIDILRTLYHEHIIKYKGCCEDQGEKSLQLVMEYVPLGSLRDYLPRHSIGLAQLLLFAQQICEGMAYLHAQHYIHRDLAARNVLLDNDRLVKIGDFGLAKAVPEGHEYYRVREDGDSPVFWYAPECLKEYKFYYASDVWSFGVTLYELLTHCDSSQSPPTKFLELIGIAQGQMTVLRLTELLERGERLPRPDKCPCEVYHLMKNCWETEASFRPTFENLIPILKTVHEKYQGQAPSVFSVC

CCc1cc(O)ccc1-c1ccc2c(-c3nc4c([nH]3)CN(C(C)C)[C@H](C(=O)N3CC(N(C)C)C3)C4)n[nH]c2c1 [Compound 1, (S)-(3-(dimethylamino)azetidin-1-yl)(2-(6-(2-ethyl-4-hydroxyphenyl)-1H-indazol-3-yl)-5-isopropyl-4,5,6,7-tetrahydro-3H-imidazo[4,5-c]pyridin-6-yl)methanone]
inhibition of IL-6 signaling [1]: shown to inhibit
inhibition of TYK2 [2]: potent inhibitor
plasma concentrations, effect of increasing flow rate from 30 L/min (Administration C) to 50 L/min (Administration D1) ([3]; 3 mg oral inhalation): did not impact the plasma concentrations
plasma concentrations, Administration C compared to Administration A ([3]; 3 mg oral inhalation with high-flow 30 L/min vs 3 mg nasal through the high-flow circuit 30 L/min, FIG. 3): sustained increased plasma concentrations
AUC % extrap [3, 6]: 4.451%
CL/F [3, 6]: 526.8 L/h
DN AUC0-inf [3, 6]: 2.586 ± [ng*hr/mL]/mg
DN AUC0-t [3, 6]: 2.480 ± [ng*hr/mL]/mg
DN Cmax [3, 6]: 0.5610 ± [ng/mL]/mg
Kel [3, 6]: 0.07122 ± 1 h⁻¹
Tmax [3, 6]: 1.000 h
AUC % extrap [3, 7]: 3.152%
CL/F [3, 7]: 287.0 L/h
DN AUC0-inf [3, 7]: 18.00 ± [ng*hr/mL]/mg
DN AUC0-t [3, 7]: 17.46 ± [ng*hr/mL]/mg
DN Cmax [3, 7]: 4.658 ± [ng/mL]/mg
Kel [3, 7]: 0.07667 ± 1 h⁻¹
AUC % extrap [3, 8]: 3.898%
CL/F [3, 8]: 128.9 L/h
DN AUC0-inf [3, 8]: 18.24 ± [ng*hr/mL]/mg
DN AUC0-t [3, 8]: 17.69 ± [ng*hr/mL]/mg
DN Cmax [3, 8]: 4.725 ± [ng/mL]/mg
Kel [3, 8]: 0.04804 ± 1 h⁻¹
AUC % extrap [3, 9]: 2.813%
CL/F [3, 9]: 146.9 L/h
DN AUC0-inf [3, 9]: 17.44 ± [ng*hr/mL]/mg
DN AUC0-t [3, 9]: 16.94 ± [ng*hr/mL]/mg
DN Cmax [3, 9]: 4.649 ± [ng/mL]/mg
Kel [3, 9]: 0.06152 ± 1 h⁻¹
Tmax [3, 9]: 1.000 h
AUC % extrap [3, 10]: 2.727%
CL/F [3, 10]: 312.3 L/h
DN AUC0-inf [3, 10]: 16.89 ± [ng*hr/mL]/mg
DN AUC0-t [3, 10]: 16.53 ± [ng*hr/mL]/mg
DN Cmax [3, 10]: 4.858 ± [ng/mL]/mg
Kel [3, 10]: 0.05057 ± 1 h⁻¹
Tmax ([3]; human, inhaled, Administration B: single 3 mg, oral inhalation, low-flow nasal cannula oxygen 6 L/min, read-out: Tmax): 1 h
Tmax ([3]; human, inhaled, Administration D2: single 9 mg, oral inhalation, high-flow nasal cannula oxygen 50 L/min, read-out: Tmax): 1 h
AUC(0-inf) [3, 11]: 7.76 ng·h/mL
Cmax [3, 11]: 1.68 ng/mL
AUC(0-t) ([3]; human, inhaled or intranasal, 3 mg, Administration A: single 3 mg, nasal inhalation via high-flow nasal cannula circuit, oxygen 30 L/min, read-out: AUC0-24): 7.06 ng·h/mL
AUC(0-t) ([3]; human, inhaled or intranasal, 3 mg, Administration A: single 3 mg, nasal inhalation via high-flow nasal cannula circuit, oxygen 30 L/min, read-out: AUC0-t): 7.44 ng·h/mL
Vd/F [3, 11]: 7400 L
half-life [3, 11]: 10.2 h
AUC(0-inf) [3, 12]: 54 ng·h/mL
Cmax [3, 12]: 14 ng/mL
AUC(0-t) ([3]; human, inhaled, 3 mg, Administration B: single 3 mg, oral inhalation, low-flow nasal cannula oxygen 6 L/min, read-out: AUC0-24): 49.1 ng·h/mL
AUC(0-t) ([3]; human, inhaled, 3 mg, Administration B: single 3 mg, oral inhalation, low-flow nasal cannula oxygen 6 L/min, read-out: AUC0-t): 52.4 ng·h/mL
Vd/F [3, 12]: 1770 L
half-life [3, 12]: 12.9 h
AUC(0-inf) [3, 13]: 54.7 ng·h/mL
Cmax [3, 13]: 14.2 ng/mL
AUC(0-t) ([3]; human, inhaled, 3 mg, Administration C: single 3 mg, oral inhalation, high-flow nasal cannula oxygen 30 L/min, read-out: AUC0-24): 49.9 ng·h/mL
AUC(0-t) ([3]; human, inhaled, 3 mg, Administration C: single 3 mg, oral inhalation, high-flow nasal cannula oxygen 30 L/min, read-out: AUC0-t): 53.1 ng·h/mL
Vd/F [3, 13]: 3920 L
half-life [3, 13]: 15.1 h
AUC(0-inf) [3, 14]: 52.3 ng·h/mL
Cmax [3, 14]: 13.9 ng/mL
AUC(0-t) ([3]; human, inhaled, 3 mg, Administration D1: single 3 mg, oral inhalation, high-flow nasal cannula oxygen 50 L/min, read-out: AUC0-24): 47.9 ng·h/mL
AUC(0-t) ([3]; human, inhaled, 3 mg, Administration D1: single 3 mg, oral inhalation, high-flow nasal cannula oxygen 50 L/min, read-out: AUC0-t): 50.8 ng·h/mL
Vd/F [3, 14]: 1780 L
half-life [3, 14]: 12.3 h
AUC(0-inf) [3, 15]: 152 ng·h/mL
Cmax [3, 15]: 43.7 ng/mL
AUC(0-t) ([3]; human, inhaled, 9 mg, Administration D2: single 9 mg, oral inhalation, high-flow nasal cannula oxygen 50 L/min, read-out: AUC0-24): 141 ng·h/mL
AUC(0-t) ([3]; human, inhaled, 9 mg, Administration D2: single 9 mg, oral inhalation, high-flow nasal cannula oxygen 50 L/min, read-out: AUC0-t): 149 ng·h/mL
Vd/F [3, 15]: 7310 L
half-life [3, 15]: 14.1 h
plasma concentration, 9 mg (Administration D2) vs 3 mg (Administration D1) ([3]; oral inhalation, high-flow 50 L/min, FIG. 6): approximately a dose-proportional increase in plasma concentration
change from baseline at Day 7 in SaO2/FiO2 ratio, 8-point Clinical Status scale categories, proportion alive and respiratory failure-free at Day 28, vs placebo ([4]; ITT): no difference
RFDs (respiratory failure-free days) from randomization through Day 28, median ([4]; ITT, vs placebo 21, p=0.61): 21 days
time to recovery, median ([4]; all subjects): 10 days
28-day all-cause mortality, total number of deaths ([4]; all subjects, vs placebo 13): 6
28-day all-cause mortality, HR ([4]; all subjects, p=0.08): 0.42
time to recovery, HR ([4]; all subjects, p=0.12): 1.27
time to recovery, median ([4]; post-hoc, baseline CRP <150 mg/L): 10 days
28-day all-cause mortality, HR ([4]; post-hoc, baseline CRP <150 mg/L, p=0.009): 0.097
time to recovery, HR ([4]; post-hoc, baseline CRP <150 mg/L, p=0.02): 1.48
28-day all-cause mortality, total number of deaths ([4]; post-hoc, subjects with baseline CRP <150 mg/L (n=171), vs placebo 9): 1
time to recovery or 28-day all-cause mortality vs placebo ([4]; subjects with CRP >150 mg/L (n=30)): no difference
inhibition of JAK1 [5]: potent inhibitor
